Assay results as given in US20250163047A1, “HETEROCYCLIC COMPOUNDS, COMPOSITIONS THEREOF, AND METHODS OF TREATMENT THEREWITH” (BeiGene, Ltd., priority 2022, published 2025).

How the values were obtained:
Cbl-b (aa36-427) = biological target: T1, Cbl-b (aa36-427) (Homo sapiens, UniProt Q13191); assay: Co-expressed Cbl-b with BirA biochemical assay (CBLB/E2-Ub binding, HTRF); conditions: 0.6 nM Cbl-b co-expressed with BirA, HTRF; read-out: co-express CBLB/E2-Ub-binding assay IC50
T1 construct: Cbl-b (aa36-427, in-house); made in house
Text: (§1) The assay in the absence of a Cbl-b/Cbl inhibitor, where phosphorylation of Cbl-b/Cbl by the Src kinase allows UbcH5B-Ub to bind to Cbl-b/Cbl and brings the Bodipy-Fluorescein tagged ubiquitin in proximity to the streptavidin-terbium bound to the N-terminal biotinylated Avi-tagged Cbl-b/Cbl. […] The lack of a FRET signal indicates Cbl-b/Cbl is inhibited by the Cbl-b/Cbl inhibitor.

Cbl (aa49-434) = biological target: T2, Cbl (aa49-434) (Homo sapiens, UniProt P22681); assay: Co-expressed Cbl with BirA biochemical assay (CBL/E2-Ub binding, HTRF); conditions: 0.6 nM Cbl co-expressed with BirA, read-out: co-express CBL/E2-Ub-binding assay IC50
T2 construct: Cbl (aa49-434, in-house); made in house
T2 sequence (P22681 49-434): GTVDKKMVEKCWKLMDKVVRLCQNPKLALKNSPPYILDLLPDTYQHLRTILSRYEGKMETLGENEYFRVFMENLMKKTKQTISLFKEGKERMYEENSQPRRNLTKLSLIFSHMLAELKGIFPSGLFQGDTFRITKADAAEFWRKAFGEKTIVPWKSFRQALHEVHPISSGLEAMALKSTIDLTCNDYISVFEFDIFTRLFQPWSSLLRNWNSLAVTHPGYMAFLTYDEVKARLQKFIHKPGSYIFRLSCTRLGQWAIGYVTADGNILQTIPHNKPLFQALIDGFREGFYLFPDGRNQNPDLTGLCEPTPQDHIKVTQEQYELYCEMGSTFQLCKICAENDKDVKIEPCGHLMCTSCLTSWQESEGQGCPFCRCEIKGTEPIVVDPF
Text: as §1

T1 sequence (Q13191 36-427): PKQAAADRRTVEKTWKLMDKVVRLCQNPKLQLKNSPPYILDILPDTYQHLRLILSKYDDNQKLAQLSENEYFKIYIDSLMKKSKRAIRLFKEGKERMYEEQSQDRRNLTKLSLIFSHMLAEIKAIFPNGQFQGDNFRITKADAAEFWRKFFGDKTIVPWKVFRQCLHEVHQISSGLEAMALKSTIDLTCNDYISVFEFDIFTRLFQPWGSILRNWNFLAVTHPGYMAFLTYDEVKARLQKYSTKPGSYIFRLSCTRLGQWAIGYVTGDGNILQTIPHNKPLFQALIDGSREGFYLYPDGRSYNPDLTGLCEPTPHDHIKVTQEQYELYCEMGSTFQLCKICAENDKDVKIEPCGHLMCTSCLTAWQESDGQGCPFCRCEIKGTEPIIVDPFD

IC50 (Cbl-b (aa36-427)) [nM] | IC50 (Cbl (aa49-434)) [nM] | SMILES
2.6 | 8.3 | Cn1cnnc1[C@]1(c2cncc(NC(=O)c3cc(CNC4(C)CCC4)cn4c(F)cnc34)c2)C[C@H](C)C1 [Compound A76, 3-fluoro-N-(5-((1s, 3s)-3-methyl-1-(4-methyl-4H-1,2,4-triazol-3-yl)cyclobutyl)pyridin-3-yl)-6-(((1-methylcyclobutyl)amino)methyl)imidazo[1,2-a]pyridine-8-carboxamide]
1.4 | 32 | Cn1ccc2nc(C(=O)Nc3cccc([C@]4(c5nncn5C)C[C@@H](CC#N)C4)c3)cc(CNC3(C)CCC3)c21 [Compound B56, N-(3-((1s, 3s)-3-(cyanomethyl)-1-(4-methyl-4H-1,2,4-triazol-3-yl)cyclobutyl)phenyl)-1-methyl-7-(((1-methylcyclobutyl)amino)methyl)-1H-pyrrolo[3,2-b]pyridine-5-carboxamide]
1.1 | 1.8 | Cc1cnc2c(C(=O)Nc3cncc([C@]4(c5nncn5C)C[C@@H](C)C4)c3)cc(CN[C@@H](C)C3CCC3)cn12 [Compound A63, 6-({[(1S)-1-cyclobutylethyl]amino}methyl)-3-methyl-N-{5-[(1r, 3s)-3-methyl-1-(4-methyl-1,2,4-triazol-3-yl)cyclobutyl]pyridin-3-yl}imidazo[1,2-a]pyridine-8-carboxamide]
12.8 | 24.3 | Cn1cnnc1CC1(c2cccc(NC(=O)c3cc(CNC4CCCCC4)cn4ccnc34)c2)COC1 [Compound A9, 6-((cyclohexylamino)methyl)-N-(3-(3-((4-methyl-4H-1,2,4-triazol-3-yl)methyl)oxetan-3-yl)phenyl)imidazo[1,2-a]pyridine-8-carboxamide]
1.3 | 6.8 | Cn1cnnc1[C@]1(c2cccc(NC(=O)c3cc(CNC4CCCCCC4)c4c(n3)C(C)(C)CC4)c2)C[C@H](CC#N)C1 [Compound C54, N-(3-((1s, 3s)-3-(cyanomethyl)-1-(4-methyl-4H-1,2,4-triazol-3-yl)cyclobutyl)phenyl)-4-((cycloheptylamino)methyl)-7,7-dimethyl-6,7-dihydro-5H-cyclopenta[b]pyridine-2-carboxamide]
1.7 | 16.5 | Cn1ccc2c(CNCC3CCC3)cc(C(=O)Nc3cccc([C@]4(c5nncn5C)C[C@@H](C)C4)c3)nc21 [Compound B45, 4-(((cyclobutylmethyl)amino)methyl)-1-methyl-N-(3-((1s, 3s)-3-methyl-1-(4-methyl-4H-1,2,4-triazol-3-yl)cyclobutyl)phenyl)-1H-pyrrolo[2,3-b]pyridine-6-carboxamide]
0.4 | 1.2 | C[C@H](NCc1cc(C(=O)Nc2cncc([C@]3(c4nncn4C)C[C@@H](C)C3)c2)c2ncc(Cl)n2c1)C1CC1 [Compound A77, 3-chloro-6-((((S)-1-cyclopropylethyl)amino)methyl)-N-(5-((1s,3R)-3-methyl-1-(4-methyl-4H-1,2,4-triazol-3-yl)cyclobutyl)pyridin-3-yl)imidazo[1,2-a]pyridine-8-carboxamide]
0.7 | 1.3 | C[C@H](NCc1cc(C(=O)Nc2cccc([C@]3(c4nncn4C)C[C@@H](CC#N)C3)c2)c2nccn2c1)C1CCCC1 [Compound A31, N-(3-((1s,3R)-3-(cyanomethyl)-1-(4-methyl-4H-1,2,4-triazol-3-yl)cyclobutyl)phenyl)-6-((((S)-1-cyclopentylethyl)amino)methyl)imidazo[1,2-a]pyridine-8-carboxamide]
1.7 | 16 | Cn1cnnc1[C@]1(c2cccc(NC(=O)c3cc(CNC4(C)CCC4)cn4ccnc34)c2)C[C@H](CC#N)C1 [Compound A36, N-(3-((1s, 3s)-3-(cyanomethyl)-1-(4-methyl-4H-1,2,4-triazol-3-yl)cyclobutyl)phenyl)-6-(((1-methylcyclobutyl)amino)methyl)imidazo[1,2-a]pyridine-8-carboxamide compound with N-(3-((1s, 3s)-3-(cyanomethyl)-1-(4-methyl-4H-1,2,4-triazol-3-yl)cyclobutyl)phenyl)-6-formylimidazo[1,2-a]pyridine-8-carboxamide (1:1)]
0.8 | 8.8 | Cn1cnnc1[C@]1(c2cccc(NC(=O)c3cc(CNC4(C)CCC4)c4ccsc4n3)c2)C[C@H](CC#N)C1 [Compound B39, 4-{[(1-methylcyclobutyl)amino]methyl}-N-{3-[(1s, 3s)-3-(cyanomethyl)-1-(4-methyl-1,2,4-triazol-3-yl)cyclobutyl]phenyl}thieno[2,3-b]pyridine-6-carboxamide]
1.6 | 5.5 | Cc1c[nH]c2c(CN3CC[C@H](F)[C@H](C)C3)cc(C(=O)Nc3cccc([C@]4(c5nncn5C)C[C@@H](C)C4)c3)nc12 [Compound B34, 7-(((3R,4S)-4-fluoro-3-methylpiperidin-1-yl)methyl)-3-methyl-N-(3-((1s,3S)-3-methyl-1-(4-methyl-4H-1,2,4-triazol-3-yl)cyclobutyl)phenyl)-1H-pyrrolo[3,2-b]pyridine-5-carboxamide]
0.5 | 12 | Cn1cnnc1[C@]1(c2cccc(NC(=O)c3cc(CNC4(C)CC4)cn4cc(F)nc34)c2)C[C@H](CC#N)C1 [Compound A84, N-(3-((1s, 3s)-3-(cyanomethyl)-1-(4-methyl-4H-1,2,4-triazol-3-yl)cyclobutyl)phenyl)-2-fluoro-6-(((1-methylcyclopropyl)amino)methyl)imidazo[1,2-a]pyridine-8-carboxamide]
1.1 | 6 | CC(C)CNCc1cc(C(=O)Nc2cccc([C@]3(c4nncn4C)C[C@@H](C)C3)c2)c2nccn2c1 [Compound A18, 6-((isobutylamino)methyl)-N-(3-((1s, 3s)-3-methyl-1-(4-methyl-4H-1,2,4-triazol-3-yl)cyclobutyl)phenyl)imidazo[1,2-a]pyridine-8-carboxamide]
1 | 1.7 | CC(C)CNCc1cc(C(=O)Nc2cncc([C@]3(c4nncn4C)C[C@@H](C)C3)c2)c2ncc(Cl)n2c1 [Compound A83, 3-chloro-6-((isobutylamino)methyl)-N-(5-((1s, 3s)-3-methyl-1-(4-methyl-4H-1,2,4-triazol-3-yl)cyclobutyl)pyridin-3-yl)imidazo[1,2-a]pyridine-8-carboxamide]
1.7 | 3.2 | C[C@@H]1CN(Cc2cc(C(=O)Nc3cncc([C@]4(c5nncn5C)C[C@@H](C)C4)c3)nc3c2NCC3(C)C)CC[C@@H]1F [Compound C58, 7-(((3R,4S)-4-fluoro-3-methylpiperidin-1-yl)methyl)-3,3-dimethyl-N-(5-((1s,3S)-3-methyl-1-(4-methyl-4H-1,2,4-triazol-3-yl)cyclobutyl)pyridin-3-yl)-2,3-dihydro-1H-pyrrolo[3,2-b]pyridine-5-carboxamide]
1 | 1.8 | C[C@H]1CCCN(Cc2cc(C(=O)Nc3cccc([C@]4(Cc5nncn5C)C[C@@H](C#N)C4)c3)nc3c2CCC3(C)C)C1 [Compound C8, N-(3-((1r,3S)-3-cyano-1-((4-methyl-4H-1,2,4-triazol-3-yl)methyl)cyclobutyl)phenyl)-7,7-dimethyl-4-(((S)-3-methylpiperidin-1-yl)methyl)-6,7-dihydro-5H-cyclopenta[b]pyridine-2-carboxamide]
